The test deals with beta-lactamase AmpC (Escherichia coli) (UniProt P00811). The test can be described thus: Inhibition of Escherichia coli beta-lactamase.
beta-lactamase AmpC (Escherichia coli), sequence (P00811 whole entry, looked up): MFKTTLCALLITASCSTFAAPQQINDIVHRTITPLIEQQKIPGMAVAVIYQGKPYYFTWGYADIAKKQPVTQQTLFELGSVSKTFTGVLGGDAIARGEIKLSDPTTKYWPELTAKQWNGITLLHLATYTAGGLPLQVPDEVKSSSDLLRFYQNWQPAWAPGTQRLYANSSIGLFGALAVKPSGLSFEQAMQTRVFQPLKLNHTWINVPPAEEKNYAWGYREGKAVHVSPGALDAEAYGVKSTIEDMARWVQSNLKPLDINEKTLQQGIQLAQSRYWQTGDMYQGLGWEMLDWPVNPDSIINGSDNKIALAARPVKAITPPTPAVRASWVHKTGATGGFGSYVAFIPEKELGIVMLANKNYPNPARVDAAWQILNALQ

As to `OB(O)c1cc2cc(Cn3ccnc3)ccc2s1` [5-imidazol-1-yl-methylbenzo[b]thiophen-2-ylboronic acid], the affinity corresponds to a Ki of 82 nM. This counts as double-digit nanomolar.

For the molecule `Cc1ccc2sc(B(O)O)cc2c1` [5-methyl-benzo[b]thiophen-2-ylboronic acid], the affinity, expressed as Ki, was 30 nM.

With `O=CNCc1ccc2sc(B(O)O)cc2c1` [5-formylaminomethylbenzo[b]thiophen-2-ylboronic acid], the affinity corresponds to a Ki of 450 nM.

Source of the values: BindingDB's records for doi:10.1021/jm070643q (Universit&#224, 2007).
